One series relates to Panc1 cells. Kind of series: Methylene Blue viability test of transfected Panc1 cells, alone and with Gemzar. Type of series: cell-based. The note with it: 72h post-transfection; 1 hr of treatment with 10 μM Gemzar. The procedure: FIG. 7. Gemzar® enhances siG12D-DDD effect. Panc1 cells were transfected using Lipofectamine™ with unmodified and modified siG12D and a scrambled (non-targeting) siRNA control molecule or were mock transfected (no siRNA). Cell viability was assessed 72 hrs post-transfection by the Methylene Blue (MB) test. Additional groups were transfected as described above, followed by 1 hr of treatment with 10 μM Gemzar®. The numbers 1-4 in the last column relate to the percent of inhibition of cellular growth, wherein the inhibition seen with the unmodified siRNA was assigned the value of 100%. 4, 3, 2, and 1 refer respectively to 75-100%, 50-75%, 25-50%, and 0-25% of the inhibition seen with the unmodified siRNA.
Experimental procedure: Panc1 cells were transfected using Lipofectamine™ with unmodified and modified siG12D and a scrambled (non-targeting) siRNA control molecule or were mock transfected (no siRNA). Cell viability was assessed 72 hrs post-transfection by the Methylene Blue (MB) test. Additional groups were transfected as described above, followed by 1 hr of treatment with 10 μM Gemzar®. At the exemplary time point of 72h, Gemzar® enhanced the effect of siG12D by nearly 10%. […] Other time points, for example 48h, 72h, 96h and 120h, may be utilized in additional studies.

A further series concerns Panc1-LUC tumors. As to the kind of experiment: Survival of SCIDbg mice with s.c. Panc1-LUC tumors. The note with it: 4 μg siG12D in 200 μl PBS i.p. weekly; over 41 days. Format: in vivo. The procedure: Mice were injected s.c. with 10×10^6 Panc1-LUC tumor cells in a total volume of 100 μl PBS, or into the tail of the pancreas with 10^6 cells in a total volume of 30 μl PBS.
In another experiment, 30 SCIDbg mice were injected s.c. with Panc1-LUC tumor cells, and were divided into 4 groups: (a) siG12D-DDD (12 μg siG12D per DDD)—2 DDD placed in each mouse; (b) empty DDD—2 DDD placed in each mouse; (c) 4 μg siG12D in 200 μl PBS injected intraperitoneally (i.p.) on a weekly basis; and (d) untreated. Tumor development was measured by caliper and Luciferase measurements. […] The difference in survival was statistically significant (p<0.05 compared to the other 3 groups).

d = 2'-deoxy (DNA); r = 2'-OH (RNA)

Regarding “sense GUUGGAGCUGAUGGCGUAGdTdT (SEQ ID No: 41), antisense CUACGCCAUCAGCUCCAACdTdT (SEQ ID No: 42) (sense GUUGGAGCUGAUGGCGUAGTT; antisense CUACGCCAUCAGCUCCAACTT; sugars from the 5' end r19 d2, backbone not given here) [siG12D, unmodified siRNA against G12D-mutated K-ras]”, the “enhancement of the effect of siG12D on cell viability by Gemzar” value with Panc1 cells is ~10%. This substance showed a survival rate in the series on Panc1-LUC tumors of 33.33%.

The values above are taken from US9080173B2, “Methods and compositions for RNAi-based cancer treatment” (SILENSEED LTD., priority 2012, dated 2015).
